One assay deals with globular embryos. Briefly: Elongation of globular embryos (bilayer culture system). The note with it: in liquid embryo culture medium. It counts as cell-based, Cucumis sativus. From the text:
In one embodiment, the LECM comprises one or more HDACi and/or one or more polyamines, preferably both HDACi and polyamine. The HDACi and/or the polyamine can be selected from the above lists, and can be present in any of the aforementioned quantities, in the LECM. In certain embodiments, the LECM further comprises plant growth regulators, in particular selected from auxins, cytokinins, gibberellins, abscisic acid, and mixtures thereof. In a preferred embodiment, the LECM comprises abscisic acid, in an amount effective to enable the development of the embryos. In particular, the LECM comprises from 0.5 to 5 ppm abscisic acid, still preferably from 1 to 2 ppm abscisic acid.
Globular embryos are visible after 20 to 40 days of culture in MEDM medium. To obtain elongated embryos, the inventors have used a bilayer culture system on a rotary shaker at 50-70 rpm in the dark for about 30 day, which has enabled the elongation of the embryos (FIG. 2E to 2G). The bilayer culture system is made of two layers, one lower solid medium made of MEEM with activated charcoal and solidified with 7 g/L agar (see Table 7) and one upper liquid medium, still made of MEDM supplemented with 1-2 ppm abscisic acid and containing the embryos to be elongated.

The test system of a further assay is isolated microspores. In words: Test of various compounds within the IMC media (all with SAHA 10 μM). Format: cell-based, Cucumis sativus. The note with it: in association with SAHA. The method, then: Isolated microspores are obtained according to the method described in Example 2, and cultured. […] All media comprise M404 basal medium and carbohydrates as in the MEIM composition described in Table 7, supplemented with 10 μM SAHA plus various other additional compounds. “Event” represents embryogenic callus or embryos.
The microspore cultures are evaluated for their production of multicellular structures and/or normal embryos.

Assay [1] has as its system isolated microspores of Cucumis sativus. In words: Isolated microspore culture (IMC) of cucumber with HDACi and/or polyamine: formation and classification of multicellular structures. The note with it: for Classification of the multicellular structures / Response (% of formation of multicellular structures): no polyamine. It counts as cell-based. The method, then: The solution of microspore is diluted to a concentration of about 30,000-150,000 cells/mL using a haemocytometer to count the microspore density. This is done in a Microspore Embryogenesis Induction Medium (MEIM), which components are described in Table 7. The solution is aliquoted by 4-6 mL into 60 mm×50 mm petri plates and sealed, for a heat shock of 24-72 hour at 30-33° C. in the dark.
The isolated microspores are then cultured in the dark at 22-28° C. for about four to five weeks until globular embryos can be seen by bare eyes.
The MEIM medium complemented with polyamine is referred to as a Microspore embryo development medium (MEDM) which components are described in Table 7.
One will note that the Response % is the percentage of formation of multicellular structures, not the analysis or classification of such structures as normal or abnormal. The last column (classification of the multicellular structures) reflects the observation of the multicellular structures according to criteria which defines whether they are normal or abnormal, i.e. uniformity of the cells, and compactness of the multicellular structures.

For the compound `CC1=CC(=O)CC(C)(C)[C@@]1(O)/C=C/C(C)=C\C(=O)O` [Abscisic acid, abscisic acid], the “effect on elongation of the embryos” value in the assay on globular embryos is “positive effect”.
Consider `NCCCCN` [Putrescine, putrescine], for which the “development of normal embryos from the isolated microspores” value in the assay with isolated microspores is listed as “enable the development of normal embryos”.
As to `O=C(CCCCCCC(=O)Nc1ccccc1)NO` [SAHA, suberoylanilide hydroxamic acid], the “Classification of the multicellular structures” value is “Abnormal” in assay [1] (cultivar HMX4453, SAHA 10 μM); “Abnormal” in assay [1] (cultivar PI518848, SAHA 5 μM); “Abnormal” in assay [1] (cultivar PI518848, SAHA 10 μM). Also, the “Response (% of formation of multicellular structures)” value in assay [1] (cultivar HMX4453, SAHA 10 μM) stood at 9.6%; in assay [1] (cultivar PI518848, SAHA 5 μM), 13.7%; in assay [1] (cultivar PI518848, SAHA 10 μM), 17.3%. Besides, the multicellular microspore formations result in assay [1] (isolated microspore cultures with SAHA but without polyamine) is “more present but are abnormal”.
Consider `CC(/C=C/C(=O)NO)=C\[C@@H](C)C(=O)c1ccc(N(C)C)cc1` [TSA, trichostatin A], for which the “response compared with SAHA” value in assay [1] (another HDACi tested in isolated microspore culture) was “lower response than for the SAHA”. For the same compound, in assay [1] (cultivar PI518848, TSA 0.5 μM), the “Classification of the multicellular structures” value is recorded as “Abnormal” and the “Response (% of formation of multicellular structures)” value is reported as 4.3%.

The values above are taken from patent publication US11026381B2, “Method for producing haploid, dihaploid and doubled haploid plants by isolated microspore culture” (Vilmorin & Cie, priority 2015, dated 2021).
